Measured values: patent publication US20230382949A1 (HEPTARES THERAPEUTICS LIMITED, priority 2020, published 2023)
Where two headings read alike, the source gives them in different places. Starred links: 1 amine or outer side, 2 acyl side, 3 side chain; linkers in the order of their positions; H or OH if unused. Non-standard residues stand in square brackets, D forms with d. Residues, ends and D or L forms follow the SMILES beside them. *: point of attachment. Ala(piperidin-4-yl) = O=C([C@H](CC1CCN([*:3])CC1)N[*:1])[*:2]; Malonyl(2,2-Me2,histaminyl) = CC(C)(C(=O)NCCc1cnc[nH]1)C(=O)*; Ala(1-imidazolyl) = N[C@@H](Cn1ccnc1)C(=O)O; dBip = N[C@H](Cc1ccc(-c2ccccc2)cc1)C(=O)O; Oic = O=C(O)[C@@H]1C[C@@H]2CCCC[C@@H]2N1; Phe(4-Br) = N[C@@H](Cc1ccc(Br)cc1)C(=O)O; X5 = CC(C)(C(=O)NCc1c[nH]cn1)C(=O)*; hArg = N=C(N)NCCCC[C@H](N)C(=O)O; 3Pal = N[C@@H](Cc1cccnc1)C(=O)O; dCha = N[C@H](CC1CCCCC1)C(=O)O; Pip = O=C(O)[C@@H]1CCCCN1; Nle = CCCC[C@H](N)C(=O)O; Aib = CC(C)(N)C(=O)O

Assays:
human Apelin receptor [1] = target: T1, human Apelin receptor (Homo sapiens, UniProt P35414); experiment: β-arrestin accumulation assay, functional agonism of human Apelin receptors; type: cell-based
T1 construct: host or cells: CHO-K1 cells
Description: β-arrestin assay. […] After 16 h incubation at 37° C. media was removed and cells were incubated at 37° C. for 90 min in serum free media containing increasing concentrations of test agonist. The assay reaction was stopped by adding detection reagent (DiscoveRx) and incubation for 60 min in the dark. Levels of receptor activation were then measured on a PheraStar fluorescence plate reader (BMG LabTech) and EC50 values were determined using Graphpad Prism.
T1 sequence (P32121 whole entry partner, one chain of several): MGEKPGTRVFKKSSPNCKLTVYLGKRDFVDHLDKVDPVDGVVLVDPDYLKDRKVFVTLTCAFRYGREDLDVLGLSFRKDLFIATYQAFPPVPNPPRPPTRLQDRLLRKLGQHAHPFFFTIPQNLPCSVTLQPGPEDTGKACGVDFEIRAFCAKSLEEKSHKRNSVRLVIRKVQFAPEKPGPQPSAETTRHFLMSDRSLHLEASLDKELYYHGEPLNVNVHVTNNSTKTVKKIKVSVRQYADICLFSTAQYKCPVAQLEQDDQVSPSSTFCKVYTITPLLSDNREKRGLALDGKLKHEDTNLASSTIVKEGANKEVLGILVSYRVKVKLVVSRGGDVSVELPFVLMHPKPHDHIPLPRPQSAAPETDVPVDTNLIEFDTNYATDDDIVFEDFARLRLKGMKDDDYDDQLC

human Apelin receptor [2] = target: T2, human Apelin receptor (Homo sapiens, UniProt P35414); experiment: cAMP accumulation assay (HTRF), functional agonism of human Apelin receptors; type: cell-based; conditions: for Emax: CHO
T2 sequence (P35414 1-380): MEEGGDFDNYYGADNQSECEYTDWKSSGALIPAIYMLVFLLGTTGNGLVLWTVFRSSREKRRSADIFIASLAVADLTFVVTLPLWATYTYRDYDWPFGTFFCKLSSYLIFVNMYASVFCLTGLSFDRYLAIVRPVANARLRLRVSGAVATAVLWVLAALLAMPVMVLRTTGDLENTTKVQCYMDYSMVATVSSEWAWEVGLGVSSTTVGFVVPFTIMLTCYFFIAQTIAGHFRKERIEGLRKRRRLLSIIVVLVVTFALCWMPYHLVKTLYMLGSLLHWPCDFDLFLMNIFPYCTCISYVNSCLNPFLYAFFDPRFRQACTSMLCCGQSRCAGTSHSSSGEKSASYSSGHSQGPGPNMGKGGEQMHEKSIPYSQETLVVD
Description: cAMP functional assay. cAMP production was quantified using the Homogeneous Time-Resolved Fluorescence (HTRF) cAMP dynamic-2 assay (Cisbio, France).

[3] = Human Apelin agonist cAMP assay, CHO cells stably expressing the human Apelin receptor, 3 uM forskolin
[4] = pEC50, Human Apelin agonist cAMP assay, CHO cells stably expressing the human Apelin receptor, 3 uM forskolin

Emax (human Apelin receptor [2]; read-out: Emax) [%] | EC50 (human Apelin receptor [2]; read-out: pEC50 (converted)) [nM] | Compound | EC50 (human Apelin receptor [1]) [nM] | Emax (human Apelin receptor [2]; [3]) [%] | EC50 (human Apelin receptor [2]; [4]) [nM]
87.9 | 31.6 | CC(C)C[C@H](NC(=O)[C@@H](CCCNC(=N)N)NC(=O)[C@@H]1CCCN1C(=O)[C@H](CCCCNC(=N)N)NC(=O)[C@H](CCC(N)=O)NC(=O)[C@@H](CCCNC(=N)N)NC(=O)C(C)(C)C(=O)NCCc1c[nH]cn1)C(=O)NC(C)(C)C(=O)N[C@@H](Cc1c[nH]cn1)C(=O)N[C@@H](CC1CCNCC1)C(=O)NCC(=O)N1[C@H](C(=O)N[C@@H](Cc2ccc(Br)cc2)C(=O)N2CCC[C@H]2C(=O)N[C@H](CC2CCCCC2)C(=O)O)C[C@@H]2CCCC[C@@H]21 [Example 24] ({Malonyl(2,2-Me2,histaminyl)}-[dR]Q[hArg]P[dR]L[Aib]H[Ala(piperidin-4-yl)]G[Oic][Phe(4-Br)]P[dCha]-OH) | > 10000 | – | –
– | – | CC(C)C[C@H](NC(=O)[C@H](CCCNC(=N)N)NC(=O)[C@@H]1CCCN1C(=O)[C@@H](CCCNC(=N)N)NC(=O)[C@H](CCC(N)=O)NC(=O)[C@@H](CCCNC(=N)N)NC(=O)C(C)(C)C(=O)NCCc1c[nH]cn1)C(=O)NC(C)(C)C(=O)N[C@@H](Cc1c[nH]cn1)C(=O)N[C@@H](CC1CCNCC1)C(=O)NCC(=O)N1[C@H](C(=O)N[C@@H](Cc2ccc(Br)cc2)C(=O)N2CCC[C@H]2C(=O)N[C@H](Cc2ccc(-c3ccccc3)cc2)C(=O)O)C[C@@H]2CCCC[C@@H]21 [Example 25] ({Malonyl(2,2-Me2,histaminyl)}-[dR]Q[dR]PRL[Aib]H[Ala(piperidin-4-yl)]G[Oic][Phe(4-Br)]P[dBip]-OH) | > 10000 | 92.7 | 15.8
66.1 | 6.31 | CC(C)C[C@H](NC(=O)[C@@H](CCCNC(=N)N)NC(=O)[C@@H]1CCCN1C(=O)[C@H](CCCCNC(=N)N)NC(=O)[C@H](CCC(N)=O)NC(=O)[C@@H](CCCNC(=N)N)NC(=O)C(C)(C)C(=O)NCc1c[nH]cn1)C(=O)NC(C)(C)C(=O)N[C@@H](Cc1c[nH]cn1)C(=O)N[C@@H](CC1CCNCC1)C(=O)NCC(=O)N1[C@H](C(=O)N[C@@H](Cc2ccc(Br)cc2)C(=O)N2CCC[C@H]2C(=O)N[C@H](Cc2ccc(-c3ccccc3)cc2)C(=O)O)C[C@@H]2CCCC[C@@H]21 [Example 27] (X5-[dR]Q[hArg]P[dR]L[Aib]H[Ala(piperidin-4-yl)]G[Oic][Phe(4-Br)]P[dBip]-OH) | > 10000 | – | –
– | – | CC(C)C[C@H](NC(=O)[C@@H](CCCNC(=N)N)NC(=O)[C@@H]1CCCN1C(=O)[C@H](CCCCNC(=N)N)NC(=O)[C@H](CCC(N)=O)NC(=O)[C@@H](CCCNC(=N)N)NC(=O)C(C)(C)C(=O)NCCc1cnc[nH]1)C(=O)NC(C)(C)C(=O)N[C@@H](Cn1ccnc1)C(=O)N[C@@H](CC1CCNCC1)C(=O)NCC(=O)N1[C@H](C(=O)N[C@@H](Cc2ccc(Br)cc2)C(=O)N2CCC[C@H]2C(=O)N[C@H](Cc2ccc(-c3ccccc3)cc2)C(=O)O)C[C@@H]2CCCC[C@@H]21 [Example 28] ({Malonyl(2,2-Me2,histaminyl)}-[dR]Q[hArg]P[dR]L[Aib][Ala(1-imidazolyl)][Ala(piperidin-4-yl)]G[Oic][Phe(4-Br)]P[dBip]-OH) | > 10000 | 27.4 | 15.8
– | – | CC(C)C[C@H](NC(=O)[C@@H](CCCNC(=N)N)NC(=O)[C@@H]1CCCCN1C(=O)[C@H](CCCCNC(=N)N)NC(=O)[C@H](CCC(N)=O)NC(=O)[C@@H](CCCNC(=N)N)NC(=O)C(C)(C)C(=O)NCCc1cnc[nH]1)C(=O)NC(C)(C)C(=O)N[C@@H](Cc1c[nH]cn1)C(=O)N[C@@H](CC1CCNCC1)C(=O)N[C@@H](C)C(=O)N1[C@H](C(=O)N[C@@H](Cc2ccc(Br)cc2)C(=O)N2CCC[C@H]2C(=O)N[C@H](Cc2ccc(-c3ccccc3)cc2)C(=O)O)C[C@@H]2CCCC[C@@H]21 [Example 29] ({Malonyl(2,2-Me2,histaminyl)}-[dR]Q[hArg][Pip][dR]L[Aib]H[Ala(piperidin-4-yl)]A[Oic][Phe(4-Br)]P[dBip]-OH) | > 10000 | 69.7 | 2.51
– | – | CC(C)C[C@H](NC(=O)[C@@H](CCCNC(=N)N)NC(=O)[C@@H]1CCCCN1C(=O)[C@H](CCCNC(=N)N)NC(=O)[C@H](CCC(N)=O)NC(=O)[C@@H](CCCNC(=N)N)NC(=O)C(C)(C)C(=O)NCCc1cnc[nH]1)C(=O)NC(C)(C)C(=O)N[C@@H](Cc1c[nH]cn1)C(=O)N[C@@H](CC1CCNCC1)C(=O)NCC(=O)N1[C@H](C(=O)N[C@@H](Cc2ccc(Br)cc2)C(=O)N2CCC[C@H]2C(=O)N[C@H](Cc2ccc(-c3ccccc3)cc2)C(=O)O)C[C@@H]2CCCC[C@@H]21 [Example 30] ({Malonyl(2,2-Me2,histaminyl)}-[dR]QR[Pip][dR]L[Aib]H[Ala(piperidin-4-yl)]G[Oic][Phe(4-Br)]P[dBip]-OH) | > 10000 | 106 | 5.01
75.4 | 10 | CC(C)C[C@H](NC(=O)[C@@H](CCCNC(=N)N)NC(=O)[C@@H]1CCCCN1C(=O)[C@H](CCCCNC(=N)N)NC(=O)[C@H](CCC(N)=O)NC(=O)[C@@H](CCCNC(=N)N)NC(=O)C(C)(C)C(=O)NCCc1cnc[nH]1)C(=O)NC(C)(C)C(=O)N[C@@H](Cc1cccnc1)C(=O)N[C@@H](CC1CCNCC1)C(=O)NCC(=O)N1[C@H](C(=O)N[C@@H](Cc2ccc(Br)cc2)C(=O)N2CCC[C@H]2C(=O)N[C@H](Cc2ccc(-c3ccccc3)cc2)C(=O)O)C[C@@H]2CCCC[C@@H]21 [Example 31] ({Malonyl(2,2-Me2,histaminyl)}-[dR]Q[hArg][Pip][dR]L[Aib][3Pal][Ala(piperidin-4-yl)]G[Oic][Phe(4-Br)]P[dBip]-OH) | > 10000 | – | –
– | – | CCCC[C@H](NC(=O)[C@@H]1C[C@@H]2CCCC[C@@H]2N1C(=O)CNC(=O)[C@H](CC1CCNCC1)NC(=O)[C@H](Cc1ccc(Br)cc1)NC(=O)C(C)(C)NC(=O)[C@H](CC(C)C)NC(=O)[C@@H](CCCNC(=N)N)NC(=O)[C@@H]1CCCN1C(=O)[C@H](CCCCNC(=N)N)NC(=O)[C@H](CCC(N)=O)NC(=O)[C@@H](CCCNC(=N)N)NC(=O)C(C)(C)C(=O)NCCc1cnc[nH]1)C(=O)N1CCC[C@H]1C(=O)N[C@H](Cc1ccc(-c2ccccc2)cc1)C(=O)O [Example 33] ({Malonyl(2,2-Me2,histaminyl)}-[dR]Q[hArg]P[dR]L[Aib][Phe(4-Br)][Ala(piperidin-4-yl)]G[Oic][Nle]P[dBip]-OH) | > 10000 | 63 | 25.1
– | – | CCCC[C@H](NC(=O)[C@@H]1C[C@@H]2CCCC[C@@H]2N1C(=O)CNC(=O)[C@H](CC1CCNCC1)NC(=O)[C@H](Cc1ccc(Br)cc1)NC(=O)C(C)(C)NC(=O)[C@H](CC(C)C)NC(=O)[C@H](CCCNC(=N)N)NC(=O)[C@@H]1CCCN1C(=O)[C@@H](CCCNC(=N)N)NC(=O)[C@H](CCC(N)=O)NC(=O)[C@@H](CCCNC(=N)N)NC(=O)C(C)(C)C(=O)NCCc1cnc[nH]1)C(=O)N1CCC[C@H]1C(=O)N[C@H](Cc1ccc(-c2ccccc2)cc1)C(=O)O [Example 34] ({Malonyl(2,2-Me2,histaminyl)}-[dR]Q[dR]PRL[Aib][Phe(4-Br)][Ala(piperidin-4-yl)]G[Oic][Nle]P[dBip]-OH) | > 10000 | 60.6 | 25.1
